Laboratory results published in ChEMBL document CHEMBL3734721 (J Med Chem, 2015).

Key:
[1] = molecular target: Beta-2 adrenergic receptor (Homo sapiens, UniProt P07550); test: Antagonist activity at human beta2 receptor expressed in CHO-K1 cells assessed as isoproterenol-induced cAMP level by HTRF assay; format: functional, cell-based
[2] = Chemical stability of compound in 0.1N NaOH assessed as compound remaining at 10 mg/ml after 2 days; format: physicochemical; settings: read-out: Stability
[3] = molecular target: 5-hydroxytryptamine receptor 1B (Homo sapiens, UniProt P28222); test: Antagonist activity at human 5-HT1B receptor expressed in CHO-K1 cells assessed as seretonin-induced cAMP level by HTRF assay; format: functional, cell-based
[4] = molecular target: 5-hydroxytryptamine receptor 7 (Homo sapiens, UniProt P34969); test: Antagonist activity at human wild-type 5-HT7 receptor expressed in HEK cells assessed as seretonin-induced cAMP by HTRF assay; format: functional, cell-based, HEK293
Adenosine receptor A2a = Adenosine receptor A2a (Homo sapiens, UniProt P29274); test: Antagonist activity at human wild-type A2A receptor expressed in CHO-K1 cells assessed as NECA-induced cAMP by HTRF assay; format: functional, cell-based
Adenosine receptor A3 = molecular target: T1, Adenosine receptor A3 (Homo sapiens, UniProt P0DMS8); test: Antagonist activity at human wild-type A3 receptor expressed in CHO-K1 cells assessed as IB MECA-induced cAMP by HTRF assay; format: functional, cell-based
T1 sequence (P0DMS8 whole entry): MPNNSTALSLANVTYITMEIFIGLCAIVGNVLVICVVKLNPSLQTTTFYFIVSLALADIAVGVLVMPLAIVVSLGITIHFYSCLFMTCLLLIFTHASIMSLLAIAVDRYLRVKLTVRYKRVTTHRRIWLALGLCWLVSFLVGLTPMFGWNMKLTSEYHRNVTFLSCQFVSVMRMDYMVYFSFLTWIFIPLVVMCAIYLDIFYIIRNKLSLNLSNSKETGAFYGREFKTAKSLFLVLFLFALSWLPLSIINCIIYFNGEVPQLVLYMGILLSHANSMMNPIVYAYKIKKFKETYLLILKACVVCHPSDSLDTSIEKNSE

[5] = molecular target: Muscarinic acetylcholine receptor M3 (Homo sapiens, UniProt P20309); test: Antagonist activity at human wild-type M3 receptor expressed in CHO-K1 cells assessed as acetylcholine-induced calcium by FDSS assay; format: functional, cell-based
[6] = molecular target: Delta-type opioid receptor (Homo sapiens, UniProt P41143); test: Antagonist activity at human wild-type opioid-delta 1 receptor expressed in CHO-K1 cells assessed as DPDPE-induced cAMP by HTRF assay; format: functional, cell-based
[7] = molecular target: T2, 5-hydroxytryptamine receptor 2C (Homo sapiens, UniProt P28335); test: Agonist activity at human 5-HT2C receptor expressed in CHO-K1 cells assessed as calcium level by FDSS assay; format: functional, cell-based
T2 sequence (P28335 whole entry): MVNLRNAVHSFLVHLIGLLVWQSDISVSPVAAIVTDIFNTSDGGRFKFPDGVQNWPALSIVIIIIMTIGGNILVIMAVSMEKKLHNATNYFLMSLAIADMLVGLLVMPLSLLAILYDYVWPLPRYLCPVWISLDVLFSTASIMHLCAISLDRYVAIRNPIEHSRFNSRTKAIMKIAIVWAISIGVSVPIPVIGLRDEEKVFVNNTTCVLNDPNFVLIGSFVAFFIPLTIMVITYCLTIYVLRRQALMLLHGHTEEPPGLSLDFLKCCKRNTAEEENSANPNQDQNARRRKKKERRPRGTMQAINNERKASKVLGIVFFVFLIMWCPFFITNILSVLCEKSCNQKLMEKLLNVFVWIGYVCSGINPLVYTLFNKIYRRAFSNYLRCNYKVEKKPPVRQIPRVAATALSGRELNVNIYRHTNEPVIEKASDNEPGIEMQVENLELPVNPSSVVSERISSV

[8] = molecular target: T3, Alpha-1A adrenergic receptor (Homo sapiens, UniProt P35348); test: Agonist activity at human wild-type alpha 1A receptor expressed in CHO cells assessed as calcium level by HTRF assay; format: functional, cell-based
T3 sequence (P35348 whole entry): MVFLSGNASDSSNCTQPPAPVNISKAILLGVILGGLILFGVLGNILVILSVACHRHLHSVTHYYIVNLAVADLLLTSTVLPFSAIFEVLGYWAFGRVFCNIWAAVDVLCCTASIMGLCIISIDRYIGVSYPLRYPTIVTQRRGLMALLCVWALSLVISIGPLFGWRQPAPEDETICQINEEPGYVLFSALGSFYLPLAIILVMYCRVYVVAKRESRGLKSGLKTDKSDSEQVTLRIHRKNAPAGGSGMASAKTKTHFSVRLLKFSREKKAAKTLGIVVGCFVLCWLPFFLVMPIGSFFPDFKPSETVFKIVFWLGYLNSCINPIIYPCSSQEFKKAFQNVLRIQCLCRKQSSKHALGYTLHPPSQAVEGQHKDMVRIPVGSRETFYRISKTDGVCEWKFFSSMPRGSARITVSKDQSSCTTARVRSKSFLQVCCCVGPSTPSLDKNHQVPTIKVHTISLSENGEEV

Vasopressin V1a receptor = Vasopressin V1a receptor (Homo sapiens, UniProt P37288); test: Agonist activity at human wild-type AVPR1A receptor expressed in CHO-K1 cells assessed as calcium level by FDSS assay; format: functional, cell-based
D(1A) dopamine receptor = D(1A) dopamine receptor (Homo sapiens, UniProt P21728); test: Agonist activity at human wild-type D1 receptor expressed in CHO cells assessed as cAMP level by HTRF assay; format: functional, cell-based
Endothelin-1 receptor = molecular target: T4, Endothelin-1 receptor (Homo sapiens, UniProt P25101); test: Agonist activity at human wild-type ETA receptor expressed in CHO-K1 cells assessed as calcium level by HTRF assay; format: functional, cell-based
T4 sequence (P25101 whole entry): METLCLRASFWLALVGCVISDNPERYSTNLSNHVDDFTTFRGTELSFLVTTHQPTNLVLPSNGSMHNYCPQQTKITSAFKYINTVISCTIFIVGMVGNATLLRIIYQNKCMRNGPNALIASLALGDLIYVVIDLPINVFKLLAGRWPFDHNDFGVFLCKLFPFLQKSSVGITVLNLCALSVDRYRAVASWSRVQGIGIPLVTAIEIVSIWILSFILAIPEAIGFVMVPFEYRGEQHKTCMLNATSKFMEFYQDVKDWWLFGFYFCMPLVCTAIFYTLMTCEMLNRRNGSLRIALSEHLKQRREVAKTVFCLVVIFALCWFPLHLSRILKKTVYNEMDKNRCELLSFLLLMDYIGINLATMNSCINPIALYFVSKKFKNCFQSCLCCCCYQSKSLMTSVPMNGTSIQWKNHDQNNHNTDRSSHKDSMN

[9] = Intrinsic clearance in mouse liver microsomes at 1 uM by HPLC/MS/MS analysis; format: ADME; settings: read-out: CLH
Cytochrome P450 2D6 = Cytochrome P450 2D6 (Homo sapiens, UniProt P10635); test: Inhibition of human CYP2D6 by LC-MS analysis; format: ADME
human MDR1 = test: Permeability across apical to basolateral in MDCK expressing human MDR1 at 5 uM by LC-MS/MS method; format: ADME, cell-based, Canis lupus familiaris; settings: dog, read-out: permeability
[10] = Fraction unbound in rat plasma at 5 uM after 4.5 hrs by LC-MS/MS analysis; format: ADME, cell-free
[11] = Chemical stability of compound in 0.1N HCL and 0.5% H2O2 assessed as compound remaining at 10 mg/ml after 1 day; format: physicochemical; settings: read-out: Stability
Salmonella typhimurium = test: Mutagenicity in Salmonella typhimurium by Ames test; format: toxicity, organism-based; settings: salmonella enterica subsp. enterica serovar typhimurium

Chain of 5-hydroxytryptamine receptor 7 (P34969 whole entry): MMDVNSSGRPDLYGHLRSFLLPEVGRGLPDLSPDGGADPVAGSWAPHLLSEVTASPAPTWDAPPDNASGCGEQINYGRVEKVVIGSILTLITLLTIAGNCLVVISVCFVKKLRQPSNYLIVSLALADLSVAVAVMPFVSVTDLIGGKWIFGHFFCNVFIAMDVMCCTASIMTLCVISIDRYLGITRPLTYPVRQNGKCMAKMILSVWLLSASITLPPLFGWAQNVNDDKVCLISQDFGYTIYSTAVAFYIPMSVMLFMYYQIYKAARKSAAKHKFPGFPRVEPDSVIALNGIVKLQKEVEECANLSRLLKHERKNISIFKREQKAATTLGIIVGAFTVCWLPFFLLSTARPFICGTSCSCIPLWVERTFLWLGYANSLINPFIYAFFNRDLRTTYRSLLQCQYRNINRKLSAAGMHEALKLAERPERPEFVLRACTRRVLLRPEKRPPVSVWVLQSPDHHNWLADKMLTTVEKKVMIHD
Chain of Muscarinic acetylcholine receptor M3 (P20309 whole entry): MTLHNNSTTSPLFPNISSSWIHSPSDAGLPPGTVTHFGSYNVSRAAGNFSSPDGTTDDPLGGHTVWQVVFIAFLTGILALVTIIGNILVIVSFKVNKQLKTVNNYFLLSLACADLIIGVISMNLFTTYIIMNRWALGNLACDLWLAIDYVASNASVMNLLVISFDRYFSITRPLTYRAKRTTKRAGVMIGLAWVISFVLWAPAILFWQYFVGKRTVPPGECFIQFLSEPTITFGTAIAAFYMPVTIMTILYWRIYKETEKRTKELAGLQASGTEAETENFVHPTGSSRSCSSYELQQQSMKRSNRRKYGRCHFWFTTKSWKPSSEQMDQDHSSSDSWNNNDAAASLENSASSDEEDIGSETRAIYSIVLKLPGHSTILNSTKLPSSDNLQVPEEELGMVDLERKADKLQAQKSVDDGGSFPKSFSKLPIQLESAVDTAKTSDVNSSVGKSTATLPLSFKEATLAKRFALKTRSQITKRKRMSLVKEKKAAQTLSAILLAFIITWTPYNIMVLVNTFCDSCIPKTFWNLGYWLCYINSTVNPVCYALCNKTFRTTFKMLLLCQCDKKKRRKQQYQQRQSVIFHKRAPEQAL
Chain of Adenosine receptor A2a (P29274 whole entry): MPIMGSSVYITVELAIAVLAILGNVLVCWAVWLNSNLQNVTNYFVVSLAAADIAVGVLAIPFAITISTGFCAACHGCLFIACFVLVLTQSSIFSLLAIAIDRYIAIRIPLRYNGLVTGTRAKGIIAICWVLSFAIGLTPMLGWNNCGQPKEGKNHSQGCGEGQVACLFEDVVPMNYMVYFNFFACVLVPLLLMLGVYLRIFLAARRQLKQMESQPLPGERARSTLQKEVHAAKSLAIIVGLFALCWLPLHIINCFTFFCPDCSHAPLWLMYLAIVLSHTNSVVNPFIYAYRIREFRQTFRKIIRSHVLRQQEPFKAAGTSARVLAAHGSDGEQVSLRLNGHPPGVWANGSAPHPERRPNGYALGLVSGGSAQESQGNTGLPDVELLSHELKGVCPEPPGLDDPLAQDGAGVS
Chain of Beta-2 adrenergic receptor (P07550 whole entry): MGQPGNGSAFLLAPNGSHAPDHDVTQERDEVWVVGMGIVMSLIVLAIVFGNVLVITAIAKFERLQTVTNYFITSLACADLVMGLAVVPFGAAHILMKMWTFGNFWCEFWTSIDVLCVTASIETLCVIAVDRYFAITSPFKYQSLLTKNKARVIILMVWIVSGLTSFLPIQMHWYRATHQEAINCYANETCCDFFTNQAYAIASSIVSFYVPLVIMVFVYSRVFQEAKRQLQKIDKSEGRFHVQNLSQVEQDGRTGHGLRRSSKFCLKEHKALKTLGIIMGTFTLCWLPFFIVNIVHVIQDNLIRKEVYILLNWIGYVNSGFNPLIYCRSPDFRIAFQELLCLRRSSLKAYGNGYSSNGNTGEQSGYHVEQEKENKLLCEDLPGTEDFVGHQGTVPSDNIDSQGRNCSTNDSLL
Chain of Cytochrome P450 2D6 (P10635 whole entry): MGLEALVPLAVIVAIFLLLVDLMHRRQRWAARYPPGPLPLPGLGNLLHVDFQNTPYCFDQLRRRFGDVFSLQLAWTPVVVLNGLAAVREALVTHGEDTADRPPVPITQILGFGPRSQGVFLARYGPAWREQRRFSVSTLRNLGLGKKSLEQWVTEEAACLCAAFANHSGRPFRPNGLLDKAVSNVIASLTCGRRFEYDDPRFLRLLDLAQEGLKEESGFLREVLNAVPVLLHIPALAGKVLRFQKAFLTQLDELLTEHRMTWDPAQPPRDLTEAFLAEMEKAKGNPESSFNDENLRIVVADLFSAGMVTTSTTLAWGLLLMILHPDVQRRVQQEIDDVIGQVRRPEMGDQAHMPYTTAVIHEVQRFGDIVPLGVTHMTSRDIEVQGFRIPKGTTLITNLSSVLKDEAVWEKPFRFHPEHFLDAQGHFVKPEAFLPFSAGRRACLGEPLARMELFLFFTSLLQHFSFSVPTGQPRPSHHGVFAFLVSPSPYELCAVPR
Chain of 5-hydroxytryptamine receptor 1B (P28222 whole entry): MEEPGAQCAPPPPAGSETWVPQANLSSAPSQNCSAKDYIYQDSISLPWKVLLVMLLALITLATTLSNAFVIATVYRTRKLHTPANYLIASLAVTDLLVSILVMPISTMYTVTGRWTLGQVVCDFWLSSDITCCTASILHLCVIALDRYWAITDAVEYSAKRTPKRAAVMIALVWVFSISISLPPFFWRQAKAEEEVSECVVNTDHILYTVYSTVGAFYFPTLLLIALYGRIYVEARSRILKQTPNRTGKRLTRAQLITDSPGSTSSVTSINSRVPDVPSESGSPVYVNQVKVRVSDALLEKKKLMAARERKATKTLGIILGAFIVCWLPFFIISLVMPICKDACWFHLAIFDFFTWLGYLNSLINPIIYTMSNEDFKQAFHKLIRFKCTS
Chain of D(1A) dopamine receptor (P21728 whole entry): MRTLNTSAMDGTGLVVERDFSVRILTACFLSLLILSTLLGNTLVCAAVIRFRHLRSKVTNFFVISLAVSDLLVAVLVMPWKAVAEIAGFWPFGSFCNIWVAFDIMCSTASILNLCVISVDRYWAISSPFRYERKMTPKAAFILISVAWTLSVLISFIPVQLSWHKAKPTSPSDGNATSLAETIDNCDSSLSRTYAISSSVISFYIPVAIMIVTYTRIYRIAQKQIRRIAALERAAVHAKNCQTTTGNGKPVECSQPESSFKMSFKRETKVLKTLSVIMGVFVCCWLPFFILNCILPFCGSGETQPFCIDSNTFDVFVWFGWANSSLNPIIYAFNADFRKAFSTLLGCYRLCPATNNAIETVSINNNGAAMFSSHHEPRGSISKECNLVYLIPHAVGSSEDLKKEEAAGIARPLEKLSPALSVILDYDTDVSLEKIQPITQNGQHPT
Chain of Vasopressin V1a receptor (P37288 whole entry): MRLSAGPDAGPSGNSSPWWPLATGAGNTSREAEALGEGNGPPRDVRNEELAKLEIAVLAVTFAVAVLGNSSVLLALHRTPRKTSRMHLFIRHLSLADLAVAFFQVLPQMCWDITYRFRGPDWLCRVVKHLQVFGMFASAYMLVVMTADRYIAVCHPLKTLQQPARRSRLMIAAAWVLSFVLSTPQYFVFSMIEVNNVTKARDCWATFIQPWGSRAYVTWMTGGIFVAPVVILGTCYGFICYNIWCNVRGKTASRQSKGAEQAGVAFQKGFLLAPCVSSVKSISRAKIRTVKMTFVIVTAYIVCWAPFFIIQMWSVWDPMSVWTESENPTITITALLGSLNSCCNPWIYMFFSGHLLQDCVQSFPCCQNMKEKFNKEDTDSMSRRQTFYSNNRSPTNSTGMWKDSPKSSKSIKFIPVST
Chain of Delta-type opioid receptor (P41143 whole entry): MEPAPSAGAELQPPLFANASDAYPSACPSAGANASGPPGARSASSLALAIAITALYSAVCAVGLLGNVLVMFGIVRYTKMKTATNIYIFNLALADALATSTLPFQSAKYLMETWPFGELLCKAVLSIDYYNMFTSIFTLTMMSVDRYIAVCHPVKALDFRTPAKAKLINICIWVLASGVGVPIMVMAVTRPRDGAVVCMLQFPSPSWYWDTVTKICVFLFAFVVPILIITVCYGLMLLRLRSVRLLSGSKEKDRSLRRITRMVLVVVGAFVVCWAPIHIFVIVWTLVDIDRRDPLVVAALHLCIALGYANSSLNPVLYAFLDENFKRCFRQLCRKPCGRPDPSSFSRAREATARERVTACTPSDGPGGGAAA

| IC50 [1] | remaining at 48 h, 10 mg/ml [2] | IC50 [3] | IC50 [4] | IC50 (Adenosine receptor A2a) | IC50 (Adenosine receptor A3) | IC50 [5] | IC50 [6] | EC50 [7] | EC50 [8] | EC50 (Vasopressin V1a receptor) | EC50 (D(1A) dopamine receptor) | EC50 (Endothelin-1 receptor) | microsomal CLint at 1 µM [9] | IC50 (Cytochrome P450 2D6) | Papp A→B at 5 µM (human MDR1) | fraction unbound at 4.5 h, 5 µM [10] | remaining at 24 h, 10 mg/ml [11] | Compound | Activity (Salmonella typhimurium) |
| --- | --- | --- | --- | --- | --- | --- | --- | --- | --- | --- | --- | --- | --- | --- | --- | --- | --- | --- | --- |
| 0.1 µM | 83% | > 5.01 µM | > 5.01 µM | > 5.01 µM | > 5.01 µM | > 5.01 µM | > 5.01 µM | > 5.01 µM | > 5.01 µM | > 5.01 µM | > 5.01 µM | > 5.01 µM | 175 µL/min/mg | 2.51 µM | 2.3 ×10⁻⁶ cm/s | 0.29 | – | CB1C=Cc2c(cccc2OCC(O)CN(C)C)N1 (stereo not given) | – |
| 0.501 µM | 82% | > 5.01 µM | > 5.01 µM | > 5.01 µM | > 5.01 µM | > 5.01 µM | – | > 5.01 µM | > 5.01 µM | > 5.01 µM | > 5.01 µM | > 5.01 µM | > 346 µL/min/mg | 0.398 µM | 1.3 ×10⁻⁶ cm/s | 0.096 | 0% | CB1C=Cc2cccc(OCC(O)CNC(C)C)c2N1 (stereo not given) | Non-toxic |
